EC50 data for 18 molecules are collected here from US10874743B2, “IRAK degraders and uses thereof” (Kymera Therapeutics, Inc., priority 2017, dated 2020).

A value given as a limit tells only on which side of the number the result lay.

The term EC50 denotes the concentration giving half of the maximal effect.

The test system of the experiment is OCI-LY10 cells. Put plainly: OCI-LY-10 CTG cell viability assay (EC50). In kind it is cell-based. As to conditions: Homo sapiens, 96 h, CellTiter-Glo cell viability, 4 days incubation, top concentration 10 μM, read-out: OCI-LY10 IRAK4 EC50. The protocol: A CTG cell viability assay using OCI-LY-10 cells was run to determine compound-mediated cell viability (EC50).
Compound-mediated viability effect on OCI-LY10 was quantitatively determined using the CellTiter-Glo® Luminescent Cell Viability Assay kit from Promega (Catalog number G7570) following manufacturer's recommended procedures. […] Compounds were then added to the assay plate with final top concentration of 10 μM and 1:3 dilution series with total of 9 doses. The final DMSO concentration was normalized to 0.2%. The assay plates were incubated at 37° C. for 4 days under 5% CO2. Then the assay plate was equilibrated at room temperature for 10 minutes. […] The data was then analyzed by software Prism 7.0 from GraphPad and the dose response curves were fit using a three-parameter logistic equation to calculate EC50.
(Cellular ATP, detected with luciferase, serves as a proxy for viable cell number.)
Take `Cn1c(=O)n(C2CCC(=O)NC2=O)c2ccc(CCCC(C)(O)CCCNCc3ccc(-n4cc(NC(=O)c5coc(-c6ccnc(NCC7CC7)c6)n5)c(C(F)F)n4)cc3)cc21` (stereo not drawn) [I-540]: the concentration giving a half-maximal response (EC50) was less than 50 nM. `Cn1c(=O)n(C2CCC(=O)NC2=O)c2ccc(CCCOCCOCCNC(c3ccc(-n4cc(NC(=O)c5coc(-c6ccnc(NCC7CC7)c6)n5)c(C(N)=O)n4)cc3)C(F)(F)F)cc21` (stereo not drawn) [I-448]: the EC50 fell in the range of 100 to 500 nM. In the case of `O=C1CCC(N2C[C@H](c3cccc(C#CCCOCCCNCc4ccc(-n5cc(NC(=O)c6coc(-c7ccnc(NCC8CC8)c7)n6)c(C(F)F)n5)cc4)c3)OC2=O)C(=O)N1` (stereo partly drawn) [I-581] it was 100 to 500 nM; in that of `O=C1CCC(N2Cc3cc(CNC(=O)NCCOCCOCCNC(=O)n4cc(NC(=O)c5coc(-c6ccnc(NCC7CC7)c6)n5)c(C(F)F)n4)ccc3C2=O)C(=O)N1` (stereo not drawn) [I-458], 50 to 100 nM.

Turning to `CN(CCCOCCCc1ccc2c(c1)n(C)c(=O)n2C1CCC(=O)NC1=O)C(=O)c1ccc(-n2cc(NC(=O)c3coc(-c4ccnc(NCC(F)(F)F)c4)n3)c(C(N)=O)n2)cc1` (stereo not drawn) [I-494], the EC50 was greater than 1000 nM.

For `COCCOCCNCc1ccc(-n2cc(NC(=O)c3coc(-c4ccnc(NCC(F)(F)F)c4)n3)c(C(N)=O)n2)cc1` [I-597], the concentration for a half-maximal effect (EC50) was 100 to 500 nM. In the case of `O=C1CCC(n2c3ccc(NCCOCCOCCNCc4ccc(-n5cc(NC(=O)c6coc(-c7ccnc(NCC8CC8)c7)n6)c(C(F)F)n5)cc4)cc3c3cccnc32)C(=O)N1` (stereo not drawn) [I-595] it was 50 to 100 nM. In the case of `Cn1c(=O)n(C2CCC(=O)NC2=O)c2ccc(CCCOCCNCc3ccc(-n4cc(NC(=O)c5coc(-c6ccnc(NCC7CC7)c6)n5)c(C(F)F)n4)cc3)cc21` (stereo not drawn) [I-531] it was less than 50 nM. Regarding `Cn1c(=O)n(C2CCC(=O)NC2=O)c2ccc(CCCN3CCO[C@H](CNCc4ccc(-n5cc(NC(=O)c6coc(-c7ccnc(NCC8CC8)c7)n6)c(C(F)F)n5)cc4)C3)cc21` (stereo partly drawn) [I-573], the EC50 is greater than 1000 nM. With `Cn1cc(NC(=O)c2coc(-c3ccnc(NCC(F)(F)F)c3)n2)c(C(=O)NCCOCCOCCOCCOCCCc2cccc3c2n(C)c(=O)n3C2CCC(=O)NC2=O)n1` (stereo not drawn) [I-455] the figure was greater than 1000 nM; with `Cn1cc(NC(=O)c2coc(-c3ccnc(NCC(F)(F)F)c3)n2)c(-c2cncc(CNCCOCCOCCCc3cccc4c3n(C)c(=O)n4C3CCC(=O)NC3=O)c2)n1` (stereo not drawn) [I-541], greater than 1000 nM; with `N#Cc1nn(-c2ccc(CNCCOCCOCCCc3ccc4c(c3)oc(=O)n4C3CCC(=O)NC3=O)cc2)cc1NC(=O)c1coc(-c2ccnc(NCC3CC3)c2)n1` (stereo not drawn) [I-538], greater than 1000 nM.

In the case of `Cn1c(=O)n(C2CCC(=O)NC2=O)c2ccc(CCCN3CCO[C@@H](CCNCc4ccc(-n5cc(NC(=O)c6coc(-c7ccnc(NCC(F)(F)F)c7)n6)c(C(N)=O)n5)cc4)C3)cc21` (stereo partly drawn) [I-575], the EC50 was in the range of 100 to 500 nM. With `CN1C(=O)CCC(n2c(=O)n(C)c3c(CCCOCCOCCNC(=O)c4ccc(-n5cc(NC(=O)c6coc(-c7ccnc(NCC8CC8)c7)n6)c(C(F)F)n5)cc4)cccc32)C1=O` (stereo not drawn) [I-515] the figure was 500 to 1000 nM. In the case of `Cn1c(=O)n(C2CCC(=O)NC2=O)c2cccc(CCCOCCOCCNCc3ccc(-n4cc5c(n4)CCCN5C(=O)c4coc(-c5ccnc(NCC(F)(F)F)c5)n4)cc3)c21` (stereo not drawn) [I-528] it was greater than 1000 nM; in that of `Cc1ncsc1-c1ccc(CNC(=O)[C@@H]2C[C@@H](O)CN2C(=O)[C@@H](NC(=O)COCCOCCOCCOCCOCC(=O)N2CCN(c3ccn4ncc(C(=O)Nc5cn(C)nc5C(F)F)c4n3)CC2)C(C)(C)C)cc1` [I-484], greater than 1000 nM. Consider `Cn1c(=O)n(C2CCC(=O)NC2=O)c2cccc(C#CCOCCOCCn3cc4cc(NC(=O)c5cccc(C(F)(F)F)n5)c(C(C)(C)O)cc4n3)c21` (stereo not drawn) [I-688, N-[2-[2-[2-[3-[1-(2,6-dioxo-3-piperidyl)-3-methyl-2-oxo-benzimidazol-4-yl]prop-2-ynoxy]ethoxy]ethyl]-6-(1-hydroxy-1-methyl-ethyl)indazol-5-yl]-6-(trifluoromethyl)pyridine-2-carboxamide], for which the concentration giving a half-maximal response (EC50) was greater than 1000 nM. With `Cn1c(=O)n(C2CCC(=O)NC2=O)c2cccc(CCCOCCOCCNCc3ccc(-n4cc(NC(=O)c5cc(C#N)ccn5)c(C(N)=O)n4)cc3)c21` (stereo not drawn) [I-527] the figure was greater than 1000 nM.
